Settings: 101.33 kPa, Liquid

CCCC[n+]1cccc(C)c1.O=S(=O)([N-]S(=O)(=O)C(F)(F)F)C(F)(F)F
Settings	mass density [kg/m3]
278.15 K	1431.2
283.15 K	1426.6
288.15 K	1421.9
293.15 K	1417.4
298.15 K	1412.8
303.15 K	1408.2
308.15 K	1403.6
313.15 K	1399
318.15 K	1394.5
323.15 K	1389.9
328.15 K	1385.4
333.15 K	1380.9
338.15 K	1376.4
343.15 K	1371.9
348.15 K	1367.4
353.15 K	1362.9
358.15 K	1358.5
363.15 K	1354.1

Capillary tube (Ostwald / Ubbelohde) method
Settings	viscosity [mPa·s]
278.15 K	195.43
283.15 K	142.73
288.15 K	107.15
293.15 K	82.19
298.15 K	64.36
303.15 K	51.39
308.15 K	41.64
313.15 K	34.26
318.15 K	28.57
323.15 K	24.1
328.15 K	20.57
333.15 K	17.71
338.15 K	15.38
343.15 K	13.47
348.15 K	11.9
353.15 K	10.56
358.15 K	9.44
363.15 K	8.484

CCCC[n+]1ccc(C)cc1.O=S(=O)([N-]S(=O)(=O)C(F)(F)F)C(F)(F)F
Settings	mass density [kg/m3]	viscosity [mPa·s]
278.15 K	1431	169.9
283.15 K	1426.3	124.19
288.15 K	1421.6	93.27
293.15 K	1416.9	71.72
298.15 K	1412.2	56.33
303.15 K	1407.6	45.07
308.15 K	1402.9	36.67
313.15 K	1398.3	30.28
318.15 K	1393.6	25.34
323.15 K	1389	21.45
328.15 K	1384.4	18.36
333.15 K	1379.8	15.87
338.15 K	1375.3	13.82
343.15 K	1370.7	12.13
348.15 K	1366.2	10.72
353.15 K	1361.7	9.54
358.15 K	1357.2	8.531
363.15 K	1352.7	7.673

CCCCCCCC[n+]1cccc(C)c1 [1-octyl-3-methylpyridinium]
Settings	mass density [kg/m3]	viscosity [mPa·s]
278.15 K	1347.2	398.72
283.15 K	1342.7	281.38
288.15 K	1338.2	204.35
293.15 K	1333.8	151.98
298.15 K	1329.5	115.55
303.15 K	1325.2	89.6
308.15 K	1320.9	70.72
313.15 K	1316.6	56.77
318.15 K	1312.3	46.23
323.15 K	1308	38.14
328.15 K	1303.7	31.86
333.15 K	1299.5	26.91
338.15 K	1295.2	22.95
343.15 K	1290.9	19.77
348.15 K	1286.7	17.16
353.15 K	1282.5	15.02
358.15 K	1278.3	13.23
363.15 K	1274.1	11.74

CCCC[n+]1ccccc1.O=S(=O)([N-]S(=O)(=O)C(F)(F)F)C(F)(F)F [1-butylpyridinium bis[(trifluoromethyl)sulfonyl]imide]
Settings	mass density [kg/m3]	viscosity [mPa·s]
278.15 K	1467.6	181.81
283.15 K	1462.8	133.34
288.15 K	1458.1	100.65
293.15 K	1453.4	77.72
298.15 K	1448.7	61.25
303.15 K	1444	49.15
308.15 K	1439.3	40.09
313.15 K	1434.6	33.17
318.15 K	1430	27.81
323.15 K	1425.4	23.59
328.15 K	1420.7	20.23
333.15 K	1416.1	17.51
338.15 K	1411.6	15.28
343.15 K	1407	13.44
348.15 K	1402.5	11.91
353.15 K	1398	10.62
358.15 K	1393.5	9.528
363.15 K	1389	8.594

CCC[n+]1cccc(C)c1.O=S(=O)([N-]S(=O)(=O)C(F)(F)F)C(F)(F)F
Settings	mass density [kg/m3]	viscosity [mPa·s]
278.15 K	1467.1	159.86
283.15 K	1462.3	117.81
288.15 K	1457.5	89.22
293.15 K	1452.8	69.11
298.15 K	1447.5	54.94
303.15 K	1442.8	44.22
308.15 K	1438.1	36.15
313.15 K	1433.4	29.98
318.15 K	1428.8	25.2
323.15 K	1424.1	21.43
328.15 K	1419.5	18.41
333.15 K	1414.9	15.97
338.15 K	1410.3	13.97
343.15 K	1405.7	12.31
348.15 K	1401.1	10.93
353.15 K	1396.6	9.769
358.15 K	1392.1	8.782
363.15 K	1387.7	7.937

CCCCCC[n+]1ccccc1.O=S(=O)([N-]S(=O)(=O)C(F)(F)F)C(F)(F)F [1-hexylpyridinium bis(trifluromethylsulfonyl)imide]
Settings	mass density [kg/m3]	viscosity [mPa·s]
278.15 K	1412.5	322.08
283.15 K	1407.8	229.05
288.15 K	1403.2	167.56
293.15 K	1398.7	125.56
298.15 K	1394.2	96.21
303.15 K	1389.7	75.22
308.15 K	1385.2	59.86
313.15 K	1380.7	48.42
318.15 K	1376.3	39.74
323.15 K	1371.8	33.04
328.15 K	1367.3	27.79
333.15 K	1362.9	23.64
338.15 K	1358.5	20.3
343.15 K	1354	17.58
348.15 K	1349.6	15.35
353.15 K	1345.3	13.51
358.15 K	1340.9	11.96
363.15 K	1336.6	10.66
